Laboratory results published in US9694016B2 (Novartis AG, priority 2013, dated 2017).
Read-outs that look alike come from different tables or passages of the source.

Molecular target: b-Raf (V600E) (Homo sapiens (Human), UniProt P15056, V600E)
Conditions: read-out: b-Raf IC-50, AlphaScreen
[1] = 60 min pre-incubation, 3 hours reaction
[2] = 60 min pre-incubation, reaction 3 hours at room temperature

Chain of b-Raf (V600E) (P15056 whole entry V600E): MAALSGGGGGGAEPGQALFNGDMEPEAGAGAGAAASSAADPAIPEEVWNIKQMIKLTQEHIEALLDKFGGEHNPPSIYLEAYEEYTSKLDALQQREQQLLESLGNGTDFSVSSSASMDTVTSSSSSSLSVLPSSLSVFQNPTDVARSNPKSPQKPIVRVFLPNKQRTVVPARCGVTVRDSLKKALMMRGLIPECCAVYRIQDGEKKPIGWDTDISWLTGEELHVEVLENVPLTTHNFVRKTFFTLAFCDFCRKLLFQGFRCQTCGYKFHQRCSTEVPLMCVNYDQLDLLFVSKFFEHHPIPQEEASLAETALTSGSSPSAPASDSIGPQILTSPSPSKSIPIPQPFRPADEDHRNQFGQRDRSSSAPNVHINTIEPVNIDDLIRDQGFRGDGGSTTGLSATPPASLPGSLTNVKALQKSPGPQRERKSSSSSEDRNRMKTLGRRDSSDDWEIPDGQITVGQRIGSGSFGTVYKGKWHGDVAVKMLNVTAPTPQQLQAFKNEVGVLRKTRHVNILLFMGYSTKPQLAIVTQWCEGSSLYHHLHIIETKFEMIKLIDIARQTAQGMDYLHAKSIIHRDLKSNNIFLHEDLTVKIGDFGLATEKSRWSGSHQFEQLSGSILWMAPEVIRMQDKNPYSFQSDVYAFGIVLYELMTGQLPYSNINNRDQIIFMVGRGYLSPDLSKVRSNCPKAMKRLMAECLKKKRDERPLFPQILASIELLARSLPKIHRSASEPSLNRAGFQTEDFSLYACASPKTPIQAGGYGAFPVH

SMILES	IC50 [1]	IC50 [2]	further results
Cc1ncc(NC(=O)c2cc(C(F)(F)F)ccn2)cc1-c1cc(N2CCOCC2)c(OC2CCOCC2)nn1 [Example 629, N-(6-methyl-5-(5-morpholino-6-((tetrahydro-2H-pyran-4-yl)oxy)pyridazin-3-yl)pyridin-3-yl)-4-(trifluoromethyl)picolinamide]	1.2 nM	–	–
Cc1ncc(NC(=O)c2ccnc(C(C)(F)F)c2)cc1-c1cc(N2CCOCC2)n(C)c(=O)c1 [Example 510, 2-(1,1-difluoroethyl)-N-(1′,2-dimethyl-6′-morpholino-2′-oxo-1′,2′-dihydro-[3,4′-bipyridin]-5-yl)isonicotinamide]	7.5 nM	–	–
CCOc1ncc(-c2cc(NC(=O)c3ccnc(C4COC4)c3)cnc2C)cc1N1CCOCC1 [Example 255, N-(6′-ethoxy-2-methyl-5′-morpholino-[3,3′-bipyridin]-5-yl)-2-(oxetan-3-yl)isonicotinamide]	–	–	IC50 (Table 2, 3 hours reaction): 5.6 nM
Cc1ccc(NC(=O)c2ccnc(C(C)(C)C#N)c2)cc1-c1cc(N2C3CCC2COC3)c(=O)n(C)n1 [Example 669, N-(3-(5-(3-oxa-8-azabicyclo[3.2.1]octan-8-yl)-1-methyl-6-oxo-1,6-dihydropyridazin-3-yl)-4-methylphenyl)-2-(2-cyanopropan-2-yl)isonicotinamide]	10 nM	–	–
CCC(F)(F)c1cc(C(=O)Nc2cnc(C)c(-c3cc(N4CCOCC4)c(OCC(F)F)nn3)c2)ccn1 [Example 914, N-(5-(6-(2,2-difluoroethoxy)-5-morpholinopyridazin-3-yl)-6-methylpyridin-3-yl)-2-(1,1-difluoropropyl)isonicotinamide]	–	1.95 nM	–
Cc1ccc(NC(=O)c2cc(C(F)(F)F)ccn2)cc1-c1cc(N2CCOCC2)c(OC(C)C)nn1 [Example 594, N-(3-(6-isopropoxy-5-morpholinopyridazin-3-yl)-4-methylphenyl)-4-(trifluoromethyl)picolinamide]	0.8 nM	–	–
Cc1ccc(NC(=O)c2ccnc(S(C)(=O)=O)c2)cc1-c1cc(N2CCOCC2)c2nccn2c1 [Example 851]	–	0.9 nM	–
Cc1ccc(NC(=O)c2cc(C(C)(C)O)ccn2)cc1-c1cnc(OC(C)C)c(N2CCOCC2)c1 [Example 949, 4-(2-hydroxypropan-2-yl)-N-(3-(6-isopropoxy-5-morpholinopyridin-3-yl)-4-methylphenyl)picolinamide]	–	3.63 nM	–
Cc1ncc(NC(=O)c2cccc(C(F)(F)F)c2)cc1-c1cc(N2CCOCC2)nc(N2CCNCC2)n1 [Example 775, N-(6-methyl-5-(6-morpholino-2-(piperazin-1-yl)pyrimidin-4-yl)pyridin-3-yl)-3-(trifluoromethyl)benzamide]	20 nM	–	–
Cc1ccc(NC(=O)c2ccnc(C(C)(C)C#N)c2)cc1-c1cc(N2CCOCC2)n(C)c(=O)c1 [Example 487, 2-(2-cyanopropan-2-yl)-N-(4-methyl-3-(1-methyl-6-morpholino-2-oxo-1,2-dihydropyridin-4-yl)phenyl)isonicotinamide]	2.8 nM	–	–
Cn1cc(-c2cc(C(=O)Nc3cccc(C(F)(F)F)c3)ccc2Cl)cc(N2CCOCC2)c1=O [Example 425, 4-chloro-3-(1-methyl-5-morpholino-6-oxo-1,6-dihydropyridin-3-yl)-N-(3-(trifluoromethyl)phenyl)benzamide]	–	–	IC50 (Table 2, 3 hours reaction): 2.6 nM
CCOc1nnc(-c2cc(NC(=O)c3cccc(C(F)(F)F)c3)cnc2C)cc1N1CCOC[C@H]1C [Example 622, (R)—N-(5-(6-ethoxy-5-(3-methylmorpholino)pyridazin-3-yl)-6-methylpyridin-3-yl)-3-(trifluoromethyl)benzamide]	4.9 nM	–	–
Cc1ccc(NC(=O)c2ccnc(C(C)(C)C#N)c2)cc1-c1nc2c(c(N3CCOCC3)n1)S(=O)(=O)CC2 [Example 855, 2-(2-cyanopropan-2-yl)-N-(4-methyl-3-(4-morpholino-5,5-dioxido-6,7-dihydrothieno[3,2-d]pyrimidin-2-yl)phenyl)isonicotinamide]	–	2.3 nM	–
Cc1ccc(NC(=O)c2ccnc(C(C)C)c2)cc1-c1cc(N2CCOCC2)nc(N2CCOCC2)c1 [Example 1117, N-(3-(2,6-dimorpholinopyridin-4-yl)-4-methylphenyl)-2-isopropylisonicotinamide]	–	1.31 nM	–
Cc1ccc(NC(=O)c2ccnc(C(F)(F)F)c2)cc1-c1cc(NCC2CCOC2)nc(N2CCOCC2)c1 (stereo not drawn) [Example 1055, N-(4-methyl-3-(2-morpholino-6-(((tetrahydrofuran-3-yl)methyl)amino)pyridin-4-yl)phenyl)-2-(trifluoromethyl)isonicotinamide]	–	1.17 nM	–
Cc1ccc(NC(=O)c2ccnc(S(C)(=O)=O)c2)cc1-c1cc(N2CCOCC2)c(=O)n(C)c1 [Example 184, N-(4-methyl-3-(1-methyl-5-morpholino-6-oxo-1,6-dihydropyridin-3-yl)phenyl)-2-(methylsulfonyl)isonicotinamide]	–	–	IC50 (Table 2, 3 hours reaction): 3.1 nM
Cc1ncc(NC(=O)c2ccnc(C(C)(C)C#N)c2)cc1-c1cc(N2CCOCC2)c(=O)n(C)n1 [Example 167, 2-(2-cyanopropan-2-yl)-N-(6-methyl-5-(1-methyl-5-morpholino-6-oxo-1,6-dihydropyridazin-3-yl)pyridin-3-yl)isonicotinamide]	–	–	IC50 (Table 2, 3 hours reaction): 53.4 nM

SMILES	IC50 [1]	IC50 [2]	further results
Cc1ccc(NC(=O)c2ccnc(C3COC3)c2)cc1-c1cc(N2CCOCC2)c(=O)n(C)c1 [Example 356, N-(4-methyl-3-(1-methyl-5-morpholino-6-oxo-1,6-dihydropyridin-3-yl)phenyl)-2-(oxetan-3-yl)isonicotinamide]	–	–	IC50 (Table 2, 3 hours reaction): 3.9 nM
Cc1ncc(NC(=O)c2ccnc(C(C)(C)F)c2)cc1-c1cncc(N2CCOCC2)c1 [Example 294, 2-(2-fluoropropan-2-yl)-N-(2-methyl-5′-morpholino-[3,3′-bipyridin]-5-yl)isonicotinamide]	–	–	IC50 (Table 2, 3 hours reaction): 10.8 nM
CCN1CCN(c2cc(C(=O)Nc3cnc(C)c(-c4cc(N5CCOCC5)nc(N5CC(O)C5)c4)c3)cc(C(F)(F)F)c2)CC1 [Example 1087, 3-(4-ethylpiperazin-1-yl)-N-(2′-(3-hydroxyazetidin-1-yl)-2-methyl-6′-morpholino-[3,4′-bipyridin]-5-yl)-5-(trifluoromethyl)benzamide]	–	26.5 nM	–
Cc1ncc(NC(=O)c2ccnc(C(C)(C)C#N)c2)cc1-c1cc(N2CCOCC2)nc(NC2(CO)CCOCC2)n1 [Example 753, 2-(2-cyanopropan-2-yl)-N-(5-(2-((4-(hydroxymethyl)tetrahydro-2H-pyran-4-yl)amino)-6-morpholinopyrimidin-4-yl)-6-methylpyridin-3-yl)isonicotinamide]	30.9 nM	–	–
CCNc1nc(-c2cc(NC(=O)c3cccc(-c4nnco4)c3)ccc2C)cc(N2CCOCC2)n1 [Example 699, N-(3-(2-(ethylamino)-6-morpholinopyrimidin-4-yl)-4-methylphenyl)-3-(1,3,4-oxadiazol-2-yl)benzamide]	1.7 nM	–	–
Cc1ncc(C(=O)Nc2cccc(C(F)F)c2)cc1-c1cc(N2CCOCC2)c(=O)n(C)c1 [Example 445, N-(3-(difluoromethyl)phenyl)-1′,2-dimethyl-5′-morpholino-6′-oxo-1′,6′-dihydro-[3,3′-bipyridine]-5-carboxamide]	12 nM	–	–
Cc1ccc(NC(=O)c2cc(F)cc(N3CCOCC3)c2)cc1-c1cc(N2CCOCC2)n(C)c(=O)c1 [Example 491, 3-fluoro-N-(4-methyl-3-(1-methyl-6-morpholino-2-oxo-1,2-dihydropyridin-4-yl)phenyl)-5-morpholinobenzamide]	2.1 nM	–	–
Cc1ccc(NC(=O)c2ccnc(N(C)CCO)c2)cc1-c1cc(N2CCOCC2)c(=O)n(C)c1 [Example 456]	3.3 nM	–	–
Cc1ccc(NC(=O)c2ccnc(C3CC3)c2)cc1-c1cc(N2CCOCC2)n(C)c(=O)c1 [Example 477, 2-cyclopropyl-N-(4-methyl-3-(1-methyl-6-morpholino-2-oxo-1,2-dihydropyridin-4-yl)phenyl)isonicotinamide]	0.4 nM	–	–
Cc1ccc(NC(=O)c2ccnc(C(F)F)c2)cc1-c1nc2c(c(N3CCOCC3)n1)S(=O)(=O)CC2 [Example 856, 2-(difluoromethyl)-N-(4-methyl-3-(4-morpholino-5,5-dioxido-6,7-dihydrothieno[3,2-d]pyrimidin-2-yl)phenyl)isonicotinamide]	–	5.5 nM	–
Cc1ncc(NC(=O)c2ccnc(C(C)(C)F)c2)cc1-c1cc(N2CCOCC2)c(=O)n(C)n1 [Example 677, 2-(2-fluoropropan-2-yl)-N-(6-methyl-5-(1-methyl-5-morpholino-6-oxo-1,6-dihydropyridazin-3-yl)pyridin-3-yl)isonicotinamide]	12.7 nM	–	–
Cc1ccc(NC(=O)c2ccnc(C(C)(C)F)c2)cc1-c1cc(NC[C@@H](C)O)nc(N2CCOCC2)n1 [Example 1025, (R)-2-(2-fluoropropan-2-yl)-N-(3-(6-((2-hydroxypropyl)amino)-2-morpholinopyrimidin-4-yl)-4-methylphenyl)isonicotinamide]	–	12.7 nM	–
CCNc1nc(-c2cc(NC(=O)c3ccnc(C(C)(C)C#N)c3)cnc2C)cc(N2CCOCC2)n1 [Example 718, 2-(2-cyanopropan-2-yl)-N-(5-(2-(ethylamino)-6-morpholinopyrimidin-4-yl)-6-methylpyridin-3-yl)isonicotinamide]	8.4 nM	–	–
Cc1ccc(NC(=O)c2ccnc(C(F)(F)F)c2)cc1-c1cnc(OCCO)c(N2CCOCC2)c1 [Example 1002, N-(3-(6-(2-hydroxyethoxy)-5-morpholinopyridin-3-yl)-4-methylphenyl)-2-(trifluoromethyl)isonicotinamide]	–	1.75 nM	–
Cc1ccc(NC(=O)c2ccnc(C(C)(F)F)c2)cc1-c1cc(N2CCOC(C)(C)C2)c(=O)n(C)n1 [Example 667, 2-(1,1-difluoroethyl)-N-(3-(5-(2,2-dimethylmorpholino)-1-methyl-6-oxo-1,6-dihydropyridazin-3-yl)-4-methylphenyl)isonicotinamide]	3.4 nM	–	–
Cc1ncc(NC(=O)c2cccc(C(C)(F)F)c2)cc1-c1cc(N2CCOCC2)c(=O)n(C)c1 [Example 393, 3-(1,1-difluoroethyl)-N-(1′,2-dimethyl-5′-morpholino-6′-oxo-1′,6′-dihydro-[3,3′-bipyridin]-5-yl)benzamide]	–	–	IC50 (Table 2, 3 hours reaction): 4.6 nM
